Assay results published in US9920012B2, “Indazole guanidine F1F0-ATPase inhibitors and therapeutic uses thereof” (Lycera Corporation, priority 2012, dated 2018).
Like-named read-outs stand apart in the source and are kept apart here.

How the values were obtained:
[1] = target: T1, F1F0-ATPase (Bos taurus, UniProt P13621); assay: Inhibition of F1F0-ATPase activity in synthesizing ATP; assay type: biochemical; conditions: inhibition of ATP synthesis; detection limit IC50=16 μM; read-out: ATP Syn IC50
T1 construct: from tissue
Protocol: (§1) Exemplary compounds described in above Examples were tested for activity against F1F0-ATPase by measuring the ability of the compounds to inhibit ATP synthesis. In addition, the compounds were assessed for cytotoxicity in Ramos cells. Inhibition of F1F0-ATPase activity in synthesizing ATP and cytotoxicity in Ramos cells were measured according to the procedures described in K. M. Johnson et al. Chemistry & Biology 2005, 12, 485-496.

[2] = tested on: Ramos cells; assay: Cytotoxicity in Ramos cells; assay type: cell-based; conditions: detection limit EC50=16 μM, read-out: Ramos Cell EC50
Protocol: as §1

IC50 [1]	Structure (SMILES)	EC50 [2]	EC50 ([2]; Homo sapiens)
< 5 µM	COC[C@H](C)N/C(=N/C(=O)c1ccc(F)c(F)c1)Nc1n[nH]c2ccc(C(F)(F)F)cc12 [Compound A-53]	> 16 µM	–
< 5 µM	CCOCCNC(=NC(=O)c1ccc(F)c(F)c1)Nc1n[nH]c2ccc(C(F)(F)F)cc12 [Compound A-54]	–	> 16 µM
> 16 µM	CC1(CNC(=NC(=O)c2ccc(F)c(F)c2)Nc2n[nH]c3ccc(C(F)(F)F)cc23)COC1 [Compound A-55]	–	> 16 µM
< 5 µM	CC(C)CN/C(=N/C(=O)c1ccc(F)c(F)c1)Nc1n[nH]c2c(O)ccc(F)c12 [Compound A-56]	< 5 µM	–
> 16 µM	CC(C)(C)N/C(=N/C(=O)c1ccc(F)c(F)c1)Nc1n[nH]c2c(C(F)(F)F)cccc12 [Compound A-57]	5 to 16 µM	–
5 to 16 µM	CC(C)CNC(=NC(=O)c1ccc(F)c(F)c1)Nc1n[nH]c2c(C(F)(F)F)cccc12 [Compound A-58]	–	5 to 16 µM
> 16 µM	COCC(C)NC(=NC(=O)c1ccc(F)c(F)c1)Nc1n[nH]c2c(C(F)(F)F)cccc12 (stereo not shown) [Compound A-59]	–	> 16 µM
5 to 16 µM	CCOCCNC(=NC(=O)c1ccc(F)c(F)c1)Nc1n[nH]c2c(C(F)(F)F)cccc12 [Compound A-60]	–	> 16 µM
< 5 µM	CCOCCN/C(=N/C(=O)c1ccc(F)c(F)c1)Nc1n[nH]c2cc(Cl)ccc12 [Compound A-61]	< 5 µM	–
> 16 µM	CC(C)(C)N/C(=N/C(=O)c1ccc(C(F)(F)F)cc1)Nc1n[nH]c2ncccc12 [Compound A-62]	> 16 µM	–
< 5 µM	CCOCCN/C(=N/C(=O)c1ccc(Cl)cc1)Nc1n[nH]c2cc(Cl)ccc12 [Compound A-63]	5 to 16 µM	–
< 5 µM	COCC(C)NC(=NC(=O)c1ccc(Cl)cc1)Nc1n[nH]c2cc(Cl)ccc12 (stereo not shown) [Compound A-64]	–	< 5 µM
< 5 µM	CCOCCNC(=NC(=O)c1ccc(Cl)cc1)Nc1n[nH]c2cc(C(F)(F)F)ccc12 [Compound A-65]	–	< 5 µM
< 5 µM	COC[C@H](C)N/C(=N/C(=O)c1ccc(Cl)cc1)Nc1n[nH]c2cc(C(F)(F)F)ccc12 [Compound A-66]	< 5 µM	–
< 5 µM	CC(C)CN/C(=N/C(=O)c1ccc(F)c(F)c1)Nc1n[nH]c2ccc(Br)cc12 [Compound A-67]	< 5 µM	–
< 5 µM	CC(C)CN/C(=N/C(=O)c1ccc(F)c(F)c1)Nc1n[nH]c2cc(Br)ccc12 [Compound A-68]	< 5 µM	–
> 16 µM	CC(C)(C)N/C(=N/C(=O)c1ccc(F)c(F)c1)Nc1n[nH]c2ncccc12 [Compound A-69]	> 16 µM	–
> 16 µM	CC(C)CN/C(=N/C(=O)c1ccc(F)c(F)c1)Nc1n[nH]c2ncccc12 [Compound A-70]	> 16 µM	–
5 to 16 µM	CC(C)(C)N/C(=N/C(=O)c1ccc(F)c(F)c1)Nc1n[nH]c2c(F)cccc12 [Compound A-72]	< 5 µM	–
5 to 16 µM	CC(C)CNC(=NC(=O)c1ccc(F)c(F)c1)Nc1n[nH]c2c(F)cccc12 [Compound A-73]	< 5 µM	–
5 to 16 µM	COC[C@H](C)N/C(=N/C(=O)c1ccc(F)c(F)c1)Nc1n[nH]c2c(F)cccc12 [Compound A-74]	5 to 16 µM	–
> 16 µM	CCOCCN/C(=N/C(=O)c1ccc(F)c(F)c1)Nc1n[nH]c2c(F)cccc12 [Compound A-75]	> 16 µM	–
< 5 µM	CC(C)N/C(=N/C(=O)c1ccc(F)c(F)c1)Nc1n[nH]c2c(F)cccc12 [Compound A-76]	< 5 µM	–

IC50 [1]	Structure (SMILES)	EC50 [2]	EC50 ([2]; Homo sapiens)
5 to 16 µM	CCOCCCN/C(=N/C(=O)c1ccc(F)c(F)c1)Nc1n[nH]c2c(F)cccc12 [Compound A-77]	< 5 µM	–
< 5 µM	COC[C@H](C)N/C(=N/C(=O)c1cccc(Cl)c1)Nc1n[nH]c2cc(Cl)ccc12 [Compound A-78]	< 5 µM	–
< 5 µM	COC[C@H](C)N/C(=N/C(=O)c1ccc(F)c(F)c1)Nc1n[nH]c2cc(F)ccc12 [Compound A-79]	< 5 µM	–
< 5 µM	COC[C@H](C)N/C(=N/C(=O)c1ccc(Cl)cc1)Nc1n[nH]c2cc(F)ccc12 [Compound A-80]	< 5 µM	–
< 5 µM	CCOCCN/C(=N/C(=O)c1ccc(F)c(F)c1)Nc1n[nH]c2cc(F)ccc12 [Compound A-81]	< 5 µM	–
< 5 µM	CCOCCN/C(=N/C(=O)c1ccc(Cl)cc1)Nc1n[nH]c2cc(F)ccc12 [Compound A-82]	< 5 µM	–
< 5 µM	CC(C)(O)CN/C(=N/C(=O)c1ccc(F)c(F)c1)Nc1n[nH]c2cc(F)ccc12 [Compound A-83]	< 5 µM	–
5 to 16 µM	COCC(C)NC(=NC(=O)c1ccc(F)c(F)c1)Nc1n[nH]c2c(Cl)cccc12 (stereo not shown) [Compound A-84]	–	> 16 µM
< 5 µM	COCC(C)NC(=NC(=O)c1cccc(Cl)c1)Nc1n[nH]c2cc(F)ccc12 (stereo not shown) [Compound A-85]	–	> 16 µM
> 16 µM	CCOCCN/C(=N/C(=O)c1cccc(Cl)c1)Nc1n[nH]c2cc(F)ccc12 [Compound A-86]	5 to 16 µM	–
> 16 µM	CC(C)(O)CN/C(=N/C(=O)c1cccc(Cl)c1)Nc1n[nH]c2cc(F)ccc12 [Compound A-87]	> 16 µM	–
5 to 16 µM	COC[C@H](C)N/C(=N/C(=O)c1ccc(O)cc1)Nc1n[nH]c2cc(F)ccc12 [Compound A-89]	5 to 16 µM	–
> 16 µM	CC(C)(O)CN/C(=N/C(=O)c1ccc(O)cc1)Nc1n[nH]c2cc(F)ccc12 [Compound A-90]	> 16 µM	–
5 to 16 µM	CC(C)CN/C(=N/C(=O)c1ccc(O)cc1)Nc1n[nH]c2cc(F)ccc12 [Compound A-91]	> 16 µM	–
5 to 16 µM	CC(C)(C)N/C(=N/C(=O)c1ccc(O)cc1)Nc1n[nH]c2cc(F)ccc12 [Compound A-92]	< 5 µM	–
5 to 16 µM	COC[C@H](C)N/C(=N/C(=O)c1cccc(O)c1)Nc1n[nH]c2cc(F)ccc12 [Compound A-93]	5 to 16 µM	–
> 16 µM	CC(C)(O)CN/C(=N/C(=O)c1cccc(O)c1)Nc1n[nH]c2cc(F)ccc12 [Compound A-94]	5 to 16 µM	–
< 5 µM	CC(C)CN/C(=N/C(=O)c1cccc(O)c1)Nc1n[nH]c2cc(F)ccc12 [Compound A-95]	5 to 16 µM	–
< 5 µM	CC(C)(C)N/C(=N/C(=O)c1cccc(O)c1)Nc1n[nH]c2cc(F)ccc12 [Compound A-96]	< 5 µM	–
< 5 µM	CC(C)(C)NC(=NC(=O)c1cccc(Cl)c1)Nc1n[nH]c2cc(F)ccc12 [Compound A-97]	< 5 µM	–
< 5 µM	CC(C)CNC(=NC(=O)c1cccc(Cl)c1)Nc1n[nH]c2cc(F)ccc12 [Compound A-98]	< 5 µM	–
< 5 µM	CCOCCNC(=NC(=O)c1cccc(Cl)c1)Nc1n[nH]c2cc(F)ccc12 [Compound A-99]	5 to 16 µM	–
< 5 µM	CC(C)(C)NC(=NC(=O)c1ccc(F)c(F)c1)Nc1n[nH]c2cc(Cl)c(F)cc12 [Compound A-100]	< 5 µM	–

Structure (SMILES)	IC50 [1]	EC50 [2]	EC50 ([2]; Homo sapiens)
COC[C@H](C)N/C(=N/C(=O)c1ccc(F)c(F)c1)Nc1n[nH]c2cc(C(F)(F)F)ccc12 [Compound A-88]	> 16 µM	< 5 µM	–
